Results on 21 compounds are retold here after patent US20090170886A1 (Pfizer Inc, priority 2005, published 2009).

Numbering of substitutions follows the chain as printed. Like-named read-outs stand apart in the source and are kept apart here.

The target of assay [1] is T1, hAR (human androgen receptor, baculovirus/Sf9 generated extracts) (Homo sapiens, UniProt P10275).
T1 construct: made in house; host or cells: baculovirus/Sf9 insect cells (crude extract)
T1 sequence (P10275 1-920): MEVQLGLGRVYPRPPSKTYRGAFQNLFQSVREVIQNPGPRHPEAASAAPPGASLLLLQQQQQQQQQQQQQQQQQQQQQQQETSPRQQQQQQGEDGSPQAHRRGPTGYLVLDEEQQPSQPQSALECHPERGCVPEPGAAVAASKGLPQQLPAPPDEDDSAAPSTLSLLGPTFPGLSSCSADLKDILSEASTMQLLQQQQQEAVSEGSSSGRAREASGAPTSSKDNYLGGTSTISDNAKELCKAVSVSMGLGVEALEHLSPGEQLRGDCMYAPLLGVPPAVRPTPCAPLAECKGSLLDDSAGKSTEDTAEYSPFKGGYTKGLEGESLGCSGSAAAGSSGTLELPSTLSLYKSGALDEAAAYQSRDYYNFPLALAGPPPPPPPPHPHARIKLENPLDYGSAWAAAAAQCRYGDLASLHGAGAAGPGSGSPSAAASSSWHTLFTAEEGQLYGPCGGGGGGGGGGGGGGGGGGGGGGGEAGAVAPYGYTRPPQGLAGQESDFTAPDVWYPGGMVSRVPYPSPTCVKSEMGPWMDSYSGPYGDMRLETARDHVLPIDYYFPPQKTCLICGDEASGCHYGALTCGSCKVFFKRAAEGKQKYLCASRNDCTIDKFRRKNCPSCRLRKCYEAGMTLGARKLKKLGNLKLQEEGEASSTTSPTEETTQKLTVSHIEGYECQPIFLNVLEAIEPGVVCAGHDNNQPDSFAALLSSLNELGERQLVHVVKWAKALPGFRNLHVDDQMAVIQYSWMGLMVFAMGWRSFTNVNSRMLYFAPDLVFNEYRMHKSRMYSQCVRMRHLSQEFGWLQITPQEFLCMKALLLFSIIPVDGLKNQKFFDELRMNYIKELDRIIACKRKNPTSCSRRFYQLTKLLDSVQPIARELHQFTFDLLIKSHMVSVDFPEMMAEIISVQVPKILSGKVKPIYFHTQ
Put plainly: AR Binding Assay (competitive binding with 3H-DHT tracer). The conditions noted are these: 1 nM 3H-DHT, one hour at 4° C., mean of multiple tests. Here is the method: The compounds of Formula I have affinity for the androgen receptor. […] The description below describes how the assay was carried out.
Competitive binding analysis was performed on baculovirus/Sf9 generated hAR extracts in the presence or absence of different concentrations of test agent and a fixed concentration of ^3H-dihydrotestosterone (^3H-DHT) as tracer. This binding assay method is a modification of a protocol previously described (Liao S., et. al., J. Steroid Biochem., 20:11-17, 1984). Briefly, progressively decreasing concentrations of compounds are incubated in the presence of hAR extract (Chang et al., P.N.A.S., Vol. 89, pp. 5546-5950, 1992), hydroxylapatite, and 1 nM ^3H-DHT for one hour at 4° C. Subsequently, the binding reactions are washed three times to completely remove excess unbound ^3H-DHT. hAR bound ^3H-DHT levels are determined in the presence of compounds (i.e. competitive binding) and compared to levels bound when no competitor is present (i.e. maximum binding). Compound binding affinity to the hAR is expressed as the concentration of compound at which one half of the maximum binding is inhibited. Table II below provides the results that were obtained for selected compounds (reported data is the mean of multiple tests as shown below).

Assay [2] deals with T2, androgen receptor in MDA-MB453-MMTV clone 54-19 cells (Homo sapiens, UniProt P10275).
T2 sequence (P10275 1-920 Q868H): T1 sequence (P10275 1-920) with Q868H
Put plainly: AR Antagonist Cell Assay (MMTV-luciferase reporter, DHT-induced). The note with it: MDA-MB453-MMTV clone 54-19, 100 pM DHT, 17 hr; mean of multiple tests. Format: cell-based. As to the method:
The compounds ability to antagonize the effects of androgen on the androgen receptor were determined in a whole cell assay as described immediately below.
Cell line: MDA-MB453-MMTV clone 54-19. This cell line is a stable transfected cell line with MDA-MB453 cell background (a human breast tumor cell line expressing androgen receptor). A MMTV minimal promoter containing ARE was first cloned in front of a firefly luciferase reporter gene. Then the cascade was cloned into transfection vector pUV120puro. Electroporation method was used for transfecting MDA-MB-453 cell. Puromycin resistant stable cell line was selected.
Culture medium: DMEM (high glucose, Gibco cat #: 11960-044), 10% FBS, and 1% L-glutamine
Plating medium: DMEM (phenol red free), 10% charcoal treated HyClone serum, 1% L-glutamine
Assay medium: DMEM (phenol red free), 1% charcoal treated HyClone serum, 1% L-glutamine, and 1% penicillin/streptomycin
3× luciferase buffer: 2% beta-mercaptoethanol, 0.6% ATP, 0.0135% luciferine in cell lysis buffer
Cells are maintained in culture medium, splitting cells when they reach 80-90% confluence. To test compounds, 10,000 cells/well are plated to opaque 96 cell culture plate in 100 ul/well plating medium, culture for overnight at 37° C. in cell culture incubator. Carefully remove plating medium, then add 80 ul/well of pre-warmed assay medium, add 10 ul/well testing compound (final concentration at) 1000 nM, 200 nM, 40 nM, 8 nM, 1.6 nM, and 0.32 nM), incubate at 37° C. for 30 minutes. Add 10 ul/well freshly prepared DHT (final concentration at 100 pM) to each well, incubate at 37° C. for 17 hr (overnight). Add 50 ul/well 3× luciferase buffer, incubate at room temperature for 5 minutes, then count on Luminometer. The fold induction over background by 100 pM DHT in the absence of testing compounds is standardized as 100% and experimental result is expressed as percentage of inhibition by testing compounds.
The results are reported as the mean of multiple tests as described below (the numbers of tests are indicated in the footnote). ND denotes that the compound was not tested.

The mark [3] stands for this setting: hAR extract, read-out: AR Binding IC50.

Consider `CC(Oc1ccc(C#N)c(C(F)(F)F)c1)c1cccc(O)c1` (racemic) [Example 8, 4-[1-(3-Hydroxyphenyl)ethoxy]-2-(trifluoromethyl)benzonitrile], for which the IC50 (in general, the point on the concentration scale where inhibition reaches its midpoint) came out at 21 nM in assay [1] (AR Binding IC50, hAR extract) and 529 nM in assay [2]. The corresponding values for `CCC(Oc1ccc(C#N)c(C(F)(F)F)c1)c1cccc(O)c1` (racemic) [Example 11, 4-[1-(3-Hydroxyphenyl)propoxy]-2-(trifluoromethyl)benzonitrile] are 11 nM and greater than 1000 nM. As for `C=CCC(Oc1ccc(C#N)c(C(F)(F)F)c1)c1cccc(O)c1` (racemic) [Example 17, 4-{[1-(3-Hydroxyphenyl)but-3-enyl]oxy}-2-(trifluoromethyl)benzonitrile], the IC50 came out at 14 nM in assay [1] (AR Binding IC50, hAR extract) and 105 nM in assay [2].

As to `CC(C)CC(Oc1ccc(C#N)c(C(F)(F)F)c1)c1cccc(O)c1` (racemic) [Example 20, 4-[1-(3-Hydroxyphenyl)-3-methylbutoxy]-2-(trifluoromethyl)benzonitrile], the IC50 in assay [1] (AR Binding IC50, hAR extract) is 183 nM; in assay [2], 40 nM. Turning to `COC(=O)c1ccc(C(C)Oc2ccc(C#N)c(C(F)(F)F)c2)cc1` (racemic) [Example 29, (±)-4-[1-(4-Cyano-3-trifluoromethyl-phenoxy)-ethyl]-benzoic Acid Methyl Ester], the IC50 in assay [1] (setting [3]) was found to be 102 nM; in assay [2] it was 132 nM. As to `CC(Oc1ccc(C#N)c(C(F)(F)F)c1)c1cccnc1` (racemic) [Example 33, 4-(1-Pyridin-3-yl-ethoxy)-2-trifluoromethyl-benzonitrile], the IC50 was found to be 192 nM in assay [1] (AR Binding IC50, hAR extract) and 63 nM in assay [2]. `CC(Oc1ccc(C#N)c(C(F)(F)F)c1)c1cccc(OC2CCCCO2)c1` (stereo not drawn) [Example 7, 4-{1-[3-(Tetrahydro-2H-pyran-2-yloxy)phenyl]ethoxy}-2-(trifluoromethyl)benzonitrile]: the IC50 in assay [1] (setting [3]) turned out to be 383 nM.

Take `CC(Oc1ccc(C#N)c(C(F)(F)F)c1)c1ccc(Cl)cc1` (stereo not drawn) [Example 23, 4-[1-(4-Chloro-phenyl)-ethoxy]-2-trifluoromethyl-benzonitrile]: in assay [1] (setting [3]), the IC50 was determined as 307 nM. Still for that read-out and setting: then `Cc1ccccc1C(C)Oc1ccc(C#N)c(C(F)(F)F)c1` (stereo not drawn) [Example 27, 4-(1-o-Tolyl-ethoxy)-2-trifluoromethyl-benzonitrile], with 439 nM. The same measure, in the same setting: then `CC(Oc1ccc(C#N)c(C(F)(F)F)c1)c1cccc(C(F)(F)F)c1` (stereo not drawn) [Example 32, 2-Trifluoromethyl-4-[1-(3-trifluoromethyl-phenyl)-ethoxy]-benzonitrile], with 214 nM. For `C[C@@H](Oc1ccc(C#N)cc1Cl)c1ccccc1` [Example 38, (R)-3-Chloro-4-(1-phenyl-ethoxy)-benzonitrile], in assay [1] (AR Binding IC50, hAR extract), the IC50 came out at 281 nM. On the same count and under the same terms, the same measure for `C[C@H](Oc1ccc(C#N)cc1Cl)c1ccccc1` [Example 39, (S)-3-Chloro-4-(1-phenyl-ethoxy)-benzonitrile]: 410 nM.

Take `CC(Cc1ccccc1)(Oc1ccc(C#N)cc1Cl)c1ccccc1` (stereo not drawn) [Example 42, 3-Chloro-4-(1-methyl-1,2-diphenyl-ethoxy)-benzonitrile]: the IC50 in assay [1] (setting [3]) came out at 377 nM.

In assay [2], `COc1ccccc1COc1ccc(C#N)c(C(F)(F)F)c1` [Example 45, 4-(2-Methoxy-benzyloxy)-2-trifluoromethyl-benzonitrile] yielded an IC50 greater than 1000 nM. Consider `CCC(C)(Oc1ccc(C#N)c(C(F)(F)F)c1)c1ccccc1` (stereo not drawn) [Example 47, 4-(1-Methyl-1-phenyl-propoxy)-2-trifluoromethyl-benzonitrile], for which the IC50 in assay [1] (setting [3]) came out at 461 nM.

As to `Cc1cccc(COc2ccc(C#N)c(C(F)(F)F)c2)c1` [Example 52, 4-(3-Methyl-benzyloxy)-2-trifluoromethyl-benzonitrile], the IC50 in assay [1] (setting [3]) amounted to 302 nM. On the same count and under the same terms, then `Cc1cccc(C)c1C(C)Oc1ccc(C#N)c(Cl)c1` (stereo not drawn) [Example 63, 2-Chloro-4-[1-(2,6-dimethyl-phenyl)-ethoxy]-benzonitrile], with 328 nM; and `COc1cc(OC(C)Cc2ccccc2)ccc1C#N` (stereo not drawn) [Example 71A, 2-Methoxy-4-(1-methyl-2-phenyl-ethoxy)-benzonitrile], with 306 nM; and `COc1ccc(CCOc2ccc(C#N)c(C(F)(F)F)c2)cc1` [Example 76, 4-[2-(4-Methoxy-phenyl)-ethoxy]-2-trifluoromethyl-benzonitrile], with 281 nM. For the compound `CCCC(Oc1ccc(C#N)c(C(F)(F)F)c1)c1cccc(C)n1` (stereo not drawn) [Example 86, 4-[1-(6-Methyl-pyridin-2-yl)-butoxy]-2-trifluoromethyl-benzonitrile], the IC50 in assay [1] (setting [3]) is 330 nM. Regarding `CCC(Oc1ccc(C#N)c(C(F)(F)F)c1)c1cccc(C)n1` (stereo not drawn) [Example 87, 4-[1-(6-Methyl-pyridin-2-yl)-propoxy]-2-trifluoromethyl-benzonitrile], in assay [1] (setting [3]), the IC50 amounted to 483 nM.
